Legend:
[1] = target: T1, PfOPRT (Plasmodium falciparum, UniProt Q8N0R1); test: ultrafiltration with 3H/[…]-labelled ligand; assay type: binding
T1 sequence (Q8N0R1 1-281): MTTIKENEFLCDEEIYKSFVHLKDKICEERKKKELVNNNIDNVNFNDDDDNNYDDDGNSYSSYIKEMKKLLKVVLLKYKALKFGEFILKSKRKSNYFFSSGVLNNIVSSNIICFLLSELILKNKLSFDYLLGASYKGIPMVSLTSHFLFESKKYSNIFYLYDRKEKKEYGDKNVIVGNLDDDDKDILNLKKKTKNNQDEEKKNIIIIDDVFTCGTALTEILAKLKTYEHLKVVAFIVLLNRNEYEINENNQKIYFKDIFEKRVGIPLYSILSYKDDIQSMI

[2] = target: T2, HsOPRT (Homo sapiens, UniProt P11172); test: ultrafiltration with 3H/[…]-labelled ligand; assay type: binding
T2 sequence (P11172 2-214 limits assumed): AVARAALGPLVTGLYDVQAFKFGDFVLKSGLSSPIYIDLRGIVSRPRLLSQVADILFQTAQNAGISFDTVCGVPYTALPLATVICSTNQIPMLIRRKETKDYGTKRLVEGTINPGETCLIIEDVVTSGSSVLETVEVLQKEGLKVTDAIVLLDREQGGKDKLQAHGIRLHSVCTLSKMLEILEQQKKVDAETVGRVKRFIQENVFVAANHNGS

[3] = target: T2, HsOPRT; test: enzyme inhibition; assay type: biochemical
[4] = target: T1, PfOPRT; test: enzyme inhibition; assay type: biochemical

| SMILES | Kd [1] | Kd [2] | Ki [3] | Ki [4] |
| --- | --- | --- | --- | --- |
| O=C(O)c1cc(=O)[nH]c(=O)n1[C@@H]1O[C@H](COP(=O)(O)O)[C@@H](O)[C@H]1O [OMP] | 3.1 ± 1.6 µM | 2.5 ± 1.2 µM |  |  |
| O=S(=O)(O)O [sulfate] |  |  | 17600 ± 2800 µM | 3100 ± 300 µM |

— article PMC3101270 (Biochemistry, 2011)
